Measured values reported in patent US20150141381A1, “TETRACYCLINE COMPOUNDS HAVING TARGET THERAPEUTIC ACTIVITIES” (Paratek Pharmaceuticals, Inc., priority 2001, published 2015).
Like-named read-outs stand apart in the source and are kept apart here.

Experiments:
S. aureus RN450 = assay: In Vitro Anti-Bacterial Activity Assay (MIC), gram positive; type: cell-based; conditions: Staphylococcus aureus, RN450, 18 h
E. coli mL308 225 = assay: In Vitro Anti-Bacterial Activity Assay (MIC), gram negative; type: cell-based; conditions: Escherichia coli, ML308225, 18 h
[1] = MIC class, Table 3, read-out: Antibiotic Activity Gram +
[2] = MIC class, Table 3, read-out: Antibiotic Activity Gram −
[3] = gram positive bacteria, read-out: Antibiotic Activity Gram + (MIC)
[4] = gram negative bacteria, read-out: Antibiotic Activity Gram − (MIC)
[5] = MIC class, Table 3 (Continued), read-out: Gram+ activity
[6] = MIC class, Table 3 (Continued), read-out: Gram− activity
[7] = read-out: Antibiotic Activity Gram +
[8] = read-out: Antibiotic Activity Gram −

Structure (SMILES)	MIC (S. aureus RN450; [1])	MIC (E. coli mL308 225; [2])	MIC (S. aureus RN450; [3])	MIC (E. coli mL308 225; [4])	other results
CCc1cc(CNCC(C)C)c(O)c2c1C[C@H]1C[C@H]3[C@H](N(C)C)C(O)=C(C(N)=O)C(=O)[C@@]3(O)C(O)=C1C2=O [IZ]	< 4 µg/mL	< 4 µg/mL			
CN(C)CCC(=O)c1cc(C(C)(C)C)c(O)c2c1C[C@H]1C[C@H]3[C@H](N(C)C)C(O)=C(C(N)=O)C(=O)[C@@]3(O)C(O)=C1C2=O			< 4 µg/mL	< 4 µg/mL	
CSCc1cc(I)c2c(c1O)C(=O)C1=C(O)[C@]3(O)C(=O)C(C(N)=O)=C(O)[C@@H](N(C)C)[C@@H]3C[C@@H]1C2			< 4 µg/mL	< 4 µg/mL	
CN(C)c1cc(CNC(=O)Nc2ccc3c(c2)OCO3)c(O)c2c1C[C@H]1C[C@H]3[C@H](N(C)C)C(O)=C(C(N)=O)C(=O)[C@@]3(O)C(O)=C1C2=O			< 4 µg/mL	> 4 µg/mL	
CN(C)c1cc(-c2ccc(CN3CCN(CCO)CC3)o2)c(O)c2c1C[C@H]1C[C@H]3[C@H](N(C)C)C(O)=C(C(N)=O)C(=O)[C@@]3(O)C(O)=C1C2=O			< 4 µg/mL	> 4 µg/mL	
CN(C)c1cc(-c2ccc3c(c2)OCO3)c(O)c2c1C[C@H]1C[C@H]3[C@H](N(C)C)C(O)=C(C(N)=O)C(=O)[C@@]3(O)C(O)=C1C2=O [Y]	< 4 µg/mL	> 4 µg/mL			
C[C@H]1c2ccc(CNC(=O)c3ccccc3)c(O)c2C(=O)C2=C(O)[C@]3(O)C(=O)C(C(N)=O)=C(O)[C@@H](N(C)C)[C@@H]3[C@@H](O)[C@@H]21 [JO]	< 4 µg/mL	> 4 µg/mL			
CCCCN(CCCC)Cc1cc(N(C)C)c2c(c1O)C(=O)C1=C(O)[C@]3(O)C(=O)C(C(N)=O)=C(O)C(N(C)C)[C@@H]3C[C@@H]1C2 (some centres unmarked) [EZ]	< 4 µg/mL	> 4 µg/mL			
CC(O)C#Cc1ccc(O)c2c1C[C@H]1C[C@H]3[C@H](N(C)C)C(O)=C(C(N)=O)C(=O)[C@@]3(O)C(O)=C1C2=O (some centres unmarked) [BD]	< 4 µg/mL	< 4 µg/mL			
COc1ccc(-c2ccc(O)c3c2C[C@H]2C[C@H]4[C@H](N(C)C)C(O)=C(C(N)=O)C(=O)[C@@]4(O)C(O)=C2C3=O)cc1 [drawing 3425]			< 4 µg/mL	< 4 µg/mL	
CC(=O)/C=C/c1ccc(O)c2c1C[C@H]1C[C@H]3[C@H](N(C)C)C(O)=C(C(N)=O)C(=O)[C@@]3(O)C(O)=C1C2=O			< 4 µg/mL	> 4 µg/mL	
CN1CCC(Nc2ccc(O)c3c2C[C@H]2C[C@H]4[C@H](N(C)C)C(O)=C(C(N)=O)C(=O)[C@@]4(O)C(O)=C2C3=O)CC1			< 4 µg/mL	> 4 µg/mL	
CN(C)c1cc(CNc2ccccn2)c(O)c2c1C[C@H]1C[C@H]3[C@H](N(C)C)C(O)=C(C(N)=O)C(=O)[C@@]3(O)C(O)=C1C2=O			< 4 µg/mL	> 4 µg/mL	
CNC(=O)C1CCN(Cc2cc(N(C)C)c3c(c2O)C(=O)C2=C(O)[C@]4(O)C(=O)C(C(N)=O)=C(O)[C@@H](N(C)C)[C@@H]4C[C@@H]2C3)CC1			< 4 µg/mL	< 4 µg/mL	
CO/N=C/c1cc(-c2ccc(O)c3c2C[C@H]2C[C@H]4[C@H](N(C)C)C(O)=C(C(N)=O)C(=O)[C@@]4(O)C(O)=C2C3=O)ccc1OC [HV]	< 4 µg/mL	> 4 µg/mL			
COc1ccc(CNCC(C)C)cc1-c1ccc(O)c2c1C[C@H]1C[C@H]3[C@H](N(C)C)C(O)=C(C(N)=O)C(=O)[C@@]3(O)C(O)=C1C2=O [EG]	< 4 µg/mL	< 4 µg/mL			
CN(C)c1cc(CNC(N)=O)c(O)c2c1C[C@H]1C[C@H]3[C@H](N(C)C)C(O)=C(C(N)=O)C(=O)[C@@]3(O)C(O)=C1C2=O			> 4 µg/mL	> 4 µg/mL	
CN(C)Cc1cc(-c2ccc(O)c3c2C[C@H]2C[C@H]4[C@H](N(C)C)C(O)=C(C(N)=O)C(=O)[C@@]4(O)C(O)=C2C3=O)ccc1F [OQ]	< 4 µg/mL	< 4 µg/mL			
CN(C)C1C(O)=C(C(N)=O)C(=O)[C@@]2(O)C(O)=C3C(=O)c4c(O)c(CN)cc(-c5ccc(C(C)(C)C)cc5)c4C[C@H]3C[C@@H]12 (some centres unmarked) [HJ]	< 4 µg/mL	< 4 µg/mL			
C[C@H]1c2ccc(-c3ccc(C=O)c4ccccc34)c(O)c2C(=O)C2=C(O)[C@]3(O)C(=O)C(C(N)=O)=C(O)[C@@H](N(C)C)[C@@H]3[C@@H](O)[C@@H]21			< 4 µg/mL	< 4 µg/mL	

Structure (SMILES)	MIC (S. aureus RN450; [1])	MIC (E. coli mL308 225; [2])	MIC (S. aureus RN450; [3])	MIC (E. coli mL308 225; [4])	other results
CN(C)[C@@H]1C(O)=C(C(N)=O)C(=O)[C@@]2(O)C(O)=C3C(=O)c4c(O)ccc(C(=O)Cc5ccccn5)c4C[C@H]3C[C@@H]12 [EL]	< 4 µg/mL	< 4 µg/mL			
CN(C)[C@@H]1C(O)=C(C(N)=O)C(=O)[C@@]2(O)C(O)=C3C(=O)c4c(O)ccc(-c5ccoc5)c4C[C@H]3C[C@@H]12 [drawing 3287]					MIC (S. aureus RN450; [5]): < 4 µg/mL; MIC (E. coli mL308 225; [6]): < 4 µg/mL
CN(C)[C@@H]1C(O)=C(C(N)=O)C(=O)[C@@]2(O)C(O)=C3C(=O)c4c(O)ccc(/C=C/c5c(F)c(F)c(F)c(F)c5F)c4C[C@H]3C[C@@H]12					MIC (S. aureus RN450; [5]): < 4 µg/mL; MIC (E. coli mL308 225; [6]): > 4 µg/mL
CN(C)[C@@H]1C(O)=C(C(N)=O)C(=O)[C@@]2(O)C(O)=C3C(=O)c4c(O)c(CN5CCCCC5)cc(-c5ccoc5)c4C[C@H]3C[C@@H]12 [PQ]	< 4 µg/mL	< 4 µg/mL			
CN(C)c1cc(CNC(=O)Oc2ccccc2)c(O)c2c1C[C@H]1C[C@H]3[C@H](N(C)C)C(O)=C(C(N)=O)C(=O)[C@@]3(O)C(O)=C1C2=O [EP]					MIC (S. aureus RN450; [7]): < 4 µg/mL; MIC (E. coli mL308 225; [8]): > 4 µg/mL
CN(C)[C@@H]1C(O)=C(C(N)=O)C(=O)[C@@]2(O)C(O)=C3C(=O)c4c(O)ccc(C=C5CCC5)c4C[C@H]3C[C@@H]12					MIC (S. aureus RN450; [5]): < 4 µg/mL; MIC (E. coli mL308 225; [6]): < 4 µg/mL
CCNCc1cc(N(C)C)c2c(c1O)C(=O)C1=C(O)[C@]3(O)C(=O)C(C(N)=O)=C(O)[C@@H](N(C)C)[C@@H]3C[C@@H]1C2			< 4 µg/mL	> 4 µg/mL	
CN(C)[C@@H]1C(O)=C(C(N)=O)C(=O)[C@@]2(O)C(O)=C3C(=O)c4c(ccc(NC5CCN(Cc6ccccc6)CC5)c4O)C[C@H]3C[C@@H]12			> 4 µg/mL	> 4 µg/mL	
CCN(CC)Cc1ccc(O)c2c1C[C@H]1C[C@H]3[C@@H](N(C)C)C(O)=C(C(N)=O)C(=O)[C@@]3(O)C(O)=C1C2=O [KI]	< 4 µg/mL	< 4 µg/mL			
CN(C)[C@@H]1C(O)=C(C(N)=O)C(=O)[C@@]2(O)C(O)=C3C(=O)c4c(O)ccc(-c5ccccc5)c4C[C@H]3C[C@@H]12			< 4 µg/mL	< 4 µg/mL	
CN(C)[C@@H]1C(O)=C(C(N)=O)C(=O)[C@@]2(O)C(O)=C3C(=O)c4c(O)ccc(N5CCOCC5)c4C[C@H]3C[C@@H]12 [drawing 3548]			< 4 µg/mL	< 4 µg/mL	
CN(C)[C@@H]1C(OCc2ccccc2)=C(C(N)=O)C(=O)[C@@]2(O)C(O)=C3C(=O)c4c(O)ccc(I)c4C[C@H]3C[C@@H]12			< 4 µg/mL	< 4 µg/mL	
CCCCN(c1ccc2c(c1O)C(=O)C1=C(O)[C@]3(O)C(=O)C(C(N)=O)=C(O)[C@@H](N(C)C)[C@@H]3[C@@H](O)[C@@H]1[C@H]2C)C1CCN(C)CC1			< 4 µg/mL	> 4 µg/mL	
CN(C)CCC(=O)c1ccc(O)c2c1C[C@H]1C[C@H]3[C@H](N(C)C)C(O)=C(C(N)=O)C(=O)[C@@]3(O)C(O)=C1C2=O [drawing 3401]			< 4 µg/mL	> 4 µg/mL	
CN(C)[C@@H]1C(O)=C(C(N)=O)C(=O)[C@@]2(O)C(O)=C3C(=O)c4c(O)c(NC(=O)OCC(C)(C)C)cc(CN)c4C[C@H]3C[C@@H]12 [HP]	> 4 µg/mL	> 4 µg/mL			
CN1C=CC(Nc2cc(C3=COCC3)c3c(c2O)C(=O)C2=C(O)[C@]4(O)C(=O)C(C(N)=O)=C(O)[C@@H](N(C)C)[C@@H]4C[C@@H]2C3)CC1 (some centres unmarked)			< 4 µg/mL	> 4 µg/mL	
CN(C)[C@@H]1C(O)=C(C(N)=O)C(=O)[C@@]2(O)C(O)=C3C(=O)c4c(O)ccc(CNCC(C)(C)C)c4C[C@H]3C[C@@H]12			< 4 µg/mL	< 4 µg/mL	
CN(C)[C@@H]1C(O)=C(C(N)=O)C(=O)[C@@]2(O)C(O)=C3C(=O)c4c(O)ccc(/C=C/c5ccc(N)cc5)c4C[C@H]3C[C@@H]12 [AY]	< 4 µg/mL	> 4 µg/mL			
CCNc1ccc(-c2ccc(O)c3c2C[C@H]2C[C@H]4[C@H](N(C)C)C(O)=C(C(N)=O)C(=O)[C@@]4(O)C(O)=C2C3=O)cc1					MIC (S. aureus RN450; [5]): < 4 µg/mL; MIC (E. coli mL308 225; [6]): < 4 µg/mL
Cc1ccc(OC(=O)NCc2cc(N(C)C)c3c(c2O)C(=O)C2=C(O)[C@]4(O)C(=O)C(C(N)=O)=C(O)[C@@H](N(C)C)[C@@H]4C[C@@H]2C3)cc1 [FG]					MIC (S. aureus RN450; [7]): < 4 µg/mL; MIC (E. coli mL308 225; [8]): > 4 µg/mL
